The values that follow come from paper PMC10051477, “5,8-Dimethyl-9H-carbazole Derivatives Blocking hTopo I Activity and Actin Dynamics” (Pharmaceuticals, 2023).

In assay [1] the test system is MDA-MB-231 cells. Kind of assay: MTT assay, MDA-MB-231 cell viability. The settings on record: Homo sapiens, 72 h, mean ± standard deviation. The assay is classed as cell-based. How it is done: (§1) The inhibition of cancer cell growth exerted by the five considered compounds (1–5) has been evaluated in vitro against two models of breast cancer, namely the estrogen receptor positive (ER+) MCF-7 and the triple negative MDA-MB-231 human breast cancer cells (lacking ER, PR, and HER-2/Neu amplification), together with the normal counterpart, namely the non-malignant breast epithelial cells MCF-10A. […] Moreover, no effects were recorded against the MCF-7 cells, at least until the concentration of 100 μM. […] Thus, the two lead compounds were chosen for subsequent studies aiming at individuating the molecular mechanisms underlying the observed anticancer activity.
(§2) MTT assays (Sigma Aldrich (St.Louis, MO, USA)) were employed to evaluate the in vitro anticancer activities of all the studied compounds, as previously described. The compounds were tested at different concentrations (0.1-1-10-25-50-100 μM) for 72 h. The IC50 values were calculated from the percent (%) of control using GraphPad Prism 9 (GraphPad Software, La Jolla, CA, USA).
(In general: Tetrazolium assays rely on reduction of a dye to a coloured formazan, in cell work by metabolically active cells.)

A further assay concerns the target T1, hTopo II (Homo sapiens, UniProt P11388).
T1 construct: purchased TopoGEN
As to the kind of experiment: hTopo II decatenation assay. The assay is classed as biochemical. The settings on record: compound at 10 μM, kDNA, agarose gel. The protocol:
Next, we screened all the compounds for their activity against the hTopo II but, in this case, none of the tested compounds have been able to block the decatenation activity at the concentration of […] (Figure 3b, lanes 4 and 5). […] Indeed, two bands related to the DNA decatenation products are present at the bottom of the agarose gel, which denote the enzyme full activity, both in the control (only vehicle, Figure 3b, lane 3) and the tested compound reactions (Figure 3b, lanes 4–7).
Similarly, hTopo II decatenation assays were carried out, as indicated in the manufacturer’s procedures (TopoGEN, Port Orange, FL, USA) with some revisions.
hTopo II decatenation assays were performed in a final volume of 20 μL: 0.3 μg of kinetoplast DNA (kDNA) was added to a solution containing 1× assay buffer (50 mM Tris-HCl, pH of 8, 150 mM NaCl, 10 mM MgCl2, 0.5 mM Dithiothreitol (DTT), 30 μg/mL bovine serum albumin (BSA), 1 mM ATP) and the tested compounds. The mix was incubated for 15 min at 37 °C. Then, the reaction was started by adding 3 U of hTopo II and incubating at 37 °C for 1 h. Then, 5× stop buffer was added and the samples were treated as described in the previous paragraph. The aqueous phase was loaded on a 1% agarose gel containing 1× TAE buffer with EB (0.5 μg/mL) and visualized using an UV transilluminator.

In another assay the test system is MCF-7 cells. As to the kind of experiment: MTT assay, MCF-7 cell viability. The format is cell-based. As to conditions: Homo sapiens, MCF7, 72 h, mean ± standard deviation. The protocol: as §2
The test system of assay [2] is MDA-MB-231 cells. As to the kind of experiment: TUNEL assay (apoptosis). The format is cell-based, human. The settings on record: MDA-MB-231, 24 h, concentration equal to IC50 values. How it is done:
Having individuated two intracellular targets, we wondered whether the lead compounds could induce apoptosis in MDA-MB-231 cells. Thus, we performed a TUNEL assay. […] Indeed, the exposure to both compounds produced a green nuclear fluorescence, already at 24 h, in MDA-MB-231 cells (Figure 6, 3 and 4, panels B, CF^TM488A) as a consequence of the damaged DNA. […] The overlay channel (Figure 6, panels C) is also shown.
TUNEL assay was employed to assess the cells apoptosis, following the manufacturer’s protocols (CF™488A TUNEL Assay Apoptosis Detection Kit, Biotium, Hayward, CA, USA) with few revisions. Briefly, the cells were plated and then additional processed as previously described. DAPI (0.2 μg/mL, Sigma Aldrich, Milan, Italy) was used for nuclei staining. A fluorescence microscope (Leica DM 6000) was used for fluorescence detection (20× magnification). LAS-X software allowed acquiring and processing all the fluorescence images, which are representative of three separate experiments.

The test system of the next assay is MCF-10A cells. As to the kind of experiment: MTT assay, MCF-10A normal cell viability. The assay is classed as cell-based, human. As to conditions: 72 h, non-malignant breast epithelial cells, mean ± standard deviation. How it is done:
as §1, §2

Assay [3] deals with T2, F-actin (labeled rabbit muscle actin) (Oryctolagus cuniculus, UniProt P68135).
T2 construct: fluorescent label (chemical); purchased Abcam; host or cells: rabbit muscle
Kind of assay: In vitro F-actin depolymerization assay. The settings on record: 5 µM added after 1 h polymerization, monitored 1 h; vehicle 20,000 RFU. The assay is classed as biochemical. How it is done:
Moreover, we performed the F-actin depolymerization assay to verify whether compounds 3 and 4 could induce the actin depolymerization as well as the LA does (Figure 5, panel B). For this purpose, we started the actin polymerization for one hour under the same experimental conditions used previously. Then, we added the compounds or the reference molecules at the concentration of 5 µM and monitored the reactions for an additional hour. […] The addition of CB was not able to produce the same effect of LA. […] Contrarily, both the compounds were able to induce an important depolymerizing effect on the F-actin, most evident in the first 7 min after the exposure. Particularly, compounds 3 and 4 produced final values of approximately 14,000 and 12,000 RFU, respectively. […] This combined effect leads to a disorganization of the intracellular actin network.
An Actin Polymerization/Depolymerization Assay Kit, purchased from Abcam, was employed to assess the ability of compounds 3 and 4 to interfere with the actin polymerization and depolymerization processes. To perform the essays, the manufacturer’s instructions were followed with some modifications. In particular, polymerization assay was carried out incubating in a white 96-well plate the reconstituted actin with supplemented Buffer G, compounds 3 and 4 and then Buffer P was added in order to induce actin polymerization. For the Actin Depolymerization Assay, the actin polymerization was first induced, incubating supplemented Buffers P and G at room temperature for one hour. Then, compounds 3 and 4 were added at a concentration of 5 μM. Latrunculin A (LA) and Cytochalasin B (CB) were utilized as positive control at a concentration of 5 μM. For both the assays, the assemblage of the actin filaments was defined by measuring the fluorescence (Ex/Em: 365/410 nm) in kinetic mode for 1 h at room temperature in a microplate reader.

Bounds are passed on as bounds.

T1 sequence (P11388 whole entry): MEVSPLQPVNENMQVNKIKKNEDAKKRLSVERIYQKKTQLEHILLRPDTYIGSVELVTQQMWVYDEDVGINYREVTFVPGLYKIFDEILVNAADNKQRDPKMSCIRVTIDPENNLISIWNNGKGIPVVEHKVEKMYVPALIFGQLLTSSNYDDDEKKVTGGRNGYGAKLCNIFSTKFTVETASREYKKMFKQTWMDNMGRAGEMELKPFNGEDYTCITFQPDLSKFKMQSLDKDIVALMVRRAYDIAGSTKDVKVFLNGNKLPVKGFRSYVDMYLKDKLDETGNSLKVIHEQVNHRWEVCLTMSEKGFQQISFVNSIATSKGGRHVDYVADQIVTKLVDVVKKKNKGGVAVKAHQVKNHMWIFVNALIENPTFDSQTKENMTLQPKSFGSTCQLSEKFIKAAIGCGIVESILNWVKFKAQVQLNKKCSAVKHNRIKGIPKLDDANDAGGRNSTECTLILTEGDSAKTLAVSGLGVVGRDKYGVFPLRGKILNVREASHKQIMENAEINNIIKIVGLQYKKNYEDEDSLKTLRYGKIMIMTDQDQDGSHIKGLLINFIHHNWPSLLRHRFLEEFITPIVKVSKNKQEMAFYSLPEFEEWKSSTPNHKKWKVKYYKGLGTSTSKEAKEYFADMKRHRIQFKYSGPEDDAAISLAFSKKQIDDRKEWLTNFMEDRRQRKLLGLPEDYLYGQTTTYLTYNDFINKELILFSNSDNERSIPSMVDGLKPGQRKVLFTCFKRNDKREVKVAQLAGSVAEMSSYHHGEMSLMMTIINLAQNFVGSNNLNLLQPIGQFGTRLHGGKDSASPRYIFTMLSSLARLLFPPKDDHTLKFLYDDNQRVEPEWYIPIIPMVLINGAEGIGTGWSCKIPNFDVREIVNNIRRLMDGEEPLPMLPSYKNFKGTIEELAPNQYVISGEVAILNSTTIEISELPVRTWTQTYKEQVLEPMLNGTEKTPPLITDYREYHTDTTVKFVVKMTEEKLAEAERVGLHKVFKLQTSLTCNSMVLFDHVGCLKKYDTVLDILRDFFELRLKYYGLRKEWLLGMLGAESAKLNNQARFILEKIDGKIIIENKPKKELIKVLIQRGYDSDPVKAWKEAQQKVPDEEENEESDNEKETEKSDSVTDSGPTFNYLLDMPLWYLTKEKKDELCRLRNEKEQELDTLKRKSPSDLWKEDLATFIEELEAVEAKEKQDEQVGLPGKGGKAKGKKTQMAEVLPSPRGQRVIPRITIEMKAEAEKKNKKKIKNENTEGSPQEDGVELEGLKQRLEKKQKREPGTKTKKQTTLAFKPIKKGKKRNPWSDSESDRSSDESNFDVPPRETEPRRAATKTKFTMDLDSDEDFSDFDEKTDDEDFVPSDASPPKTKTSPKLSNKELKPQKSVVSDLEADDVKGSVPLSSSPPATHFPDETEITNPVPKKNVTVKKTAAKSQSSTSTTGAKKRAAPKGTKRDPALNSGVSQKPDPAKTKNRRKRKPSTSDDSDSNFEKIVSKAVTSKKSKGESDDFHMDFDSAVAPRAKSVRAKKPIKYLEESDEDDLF

As a reminder, the IC50 is the concentration needed to halve the response being measured. The low end stands for greater potency, the high end for weaker potency. Regarding `Cc1ccc(C)c2c1c1cc(B(O)O)ccc1n2C(=O)OC(C)(C)C` [Compound 3], the IC50 was 1.44 ± 0.97 µM with MDA-MB-231 cells [1]; 27.6 ± 0.71 µM in the assay on MCF-7 cells; 51.9 ± 0.88 µM in the assay with MCF-10A cells; around 52 µM in the assay with MCF-10A cells (Homo sapiens, MCF-10A). On hTopo II, the “Inhibition of hTopo II decatenation activity” value is “no inhibitory activity”. Also, the “Apoptosis induction (TUNEL, green nuclear fluorescence)” value with MDA-MB-231 cells [2] was “able to trigger apoptosis”. For the same compound, the “F-actin depolymerization, final fluorescence value of reaction curve” value in assay [3] is recorded as “approximately 14,000 RFU”.
As to `Cc1ccc(C)c2c1c1cc(O)ccc1n2C(=O)OC(C)(C)C` [Compound 4], the IC50 in the assay on MDA-MB-231 cells [1] was 0.73 ± 0.74 µM; in the assay on MCF-7 cells, 19.8 ± 1.12 µM; with MCF-10A cells (Homo sapiens, MCF-10A), above 100 µM. Moreover, the “Inhibition of hTopo II decatenation activity” value at hTopo II is on record as “no inhibitory activity”. The “Apoptosis induction (TUNEL, green nuclear fluorescence)” value in the assay on MDA-MB-231 cells [2] is “able to trigger apoptosis”. Also, the “F-actin depolymerization, final fluorescence value of reaction curve” value in assay [3] was ~12,000 RFU.
